# Results taken from ChEMBL document CHEMBL1127754, “Design and synthesis of seco-oxysterol analogs as potential inhibitors of 3-hydroxy-3-methylglutaryl-coenzyme A (HMG-CoA) reductase gene transcription” (J Med Chem, 1994).
# What was measured:
# Type in all cases: cell-based
# [1] = target: T1, 3-hydroxy-3-methylglutaryl-coenzyme A reductase (Homo sapiens) (UniProt P04035); assay: Tested for the percent inhibition against HMG-CoA reductase transcription in HepG2 cells; parameters: concentration or dose not given beside the values; conditions: concentration not given here
# T1 sequence (whole entry): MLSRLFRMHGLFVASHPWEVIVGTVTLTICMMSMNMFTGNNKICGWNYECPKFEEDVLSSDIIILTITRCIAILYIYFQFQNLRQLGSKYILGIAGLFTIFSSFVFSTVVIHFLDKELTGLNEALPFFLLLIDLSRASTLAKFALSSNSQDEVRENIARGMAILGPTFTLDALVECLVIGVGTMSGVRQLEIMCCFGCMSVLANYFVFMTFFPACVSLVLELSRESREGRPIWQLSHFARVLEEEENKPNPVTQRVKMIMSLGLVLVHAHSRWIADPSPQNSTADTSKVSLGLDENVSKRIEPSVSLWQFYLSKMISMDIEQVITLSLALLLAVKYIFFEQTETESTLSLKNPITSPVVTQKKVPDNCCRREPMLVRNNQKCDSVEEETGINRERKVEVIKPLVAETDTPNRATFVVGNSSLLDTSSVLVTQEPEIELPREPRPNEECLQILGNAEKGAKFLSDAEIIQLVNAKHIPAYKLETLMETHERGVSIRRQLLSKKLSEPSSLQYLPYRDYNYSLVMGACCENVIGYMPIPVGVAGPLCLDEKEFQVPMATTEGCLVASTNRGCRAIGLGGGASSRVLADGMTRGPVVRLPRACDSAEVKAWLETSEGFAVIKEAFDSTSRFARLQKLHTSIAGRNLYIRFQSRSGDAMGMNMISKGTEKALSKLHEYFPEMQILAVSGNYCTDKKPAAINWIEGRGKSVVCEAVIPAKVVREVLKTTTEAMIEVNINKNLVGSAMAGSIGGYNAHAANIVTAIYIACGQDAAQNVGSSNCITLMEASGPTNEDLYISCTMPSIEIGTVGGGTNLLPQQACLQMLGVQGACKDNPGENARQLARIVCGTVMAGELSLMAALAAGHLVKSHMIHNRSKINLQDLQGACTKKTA
# [2] = target: T1, 3-hydroxy-3-methylglutaryl-coenzyme A reductase (Homo sapiens); assay: Tested for its percent inhibition against HMG-CoA reductase transcription in HepG2 cells in HMG-CoA reductase assay; conditions: concentration not given here
# [3] = target: T1, 3-hydroxy-3-methylglutaryl-coenzyme A reductase (Homo sapiens); assay: Tested for its percent inhibition against HMG-CoA reductase transcription in HepG2 cells in HMG-CoA reductase m-RNA assay; conditions: concentration not given here
# [4] = target: T2, 3-hydroxy-3-methylglutaryl-coenzyme A reductase (Homo sapiens, UniProt P04035); assay: Tested for its inhibitory activity against HMG-CoA reductase transcription in HepG2 cells
# T2 sequence (P04035 whole entry): T1 sequence (whole entry)
# [5] = target: T1, 3-hydroxy-3-methylglutaryl-coenzyme A reductase (Homo sapiens); assay: Tested for its percent inhibition against HMG-CoA reductase transcription in HepG2 cells in LDL-receptor binding assay; conditions: concentration not given here
Structure (SMILES),inhibition [1],also measured
CC(C)(O)CCCCc1ccc(CC[C@]2(C)CC[C@@H](O)CC2)cc1,0%,–
CC(C)CCCC[C@@H]1C[C@H](/C=C/[C@]2(C)CC[C@@H](O)CC2)[C@@H](O)[C@H]1O (stereo in doubt; 37),0%,–
CC(C)(O)CCCC[C@H]1CC[C@@H](/C=C/[C@]2(C)CC[C@@H](O)CC2)C1 (stereo in doubt; 6),0%,–
CC(C)(O)CCCC[C@H]1CC[C@@H](CC[C@]2(C)CC[C@@H](O)CC2)C1,0%,–
CC(C)(O)CCCC[C@H]1CC[C@@H](/C=C/[C@]2(C)CC[C@@H](O)CC2)C1 (stereo in doubt; 28),0%,–
CC(C)(O)CCCCc1cccc(CC[C@]2(C)CC[C@@H](O)CC2)c1,29.3%,–
CC(C)(O)CCCCc1cccc(/C=C/[C@]2(C)CC[C@@H](O)CC2)c1,46.3%,inhibition [2]: 29.7%; inhibition [3]: 72.7%; IC50 [4]: 10 µM
CC(C)CCCC[C@@H]1C[C@H](/C=C/[C@]2(C)CC[C@@H](O)CC2)[C@@H](O)[C@H]1O (stereo in doubt; 7),0%,–
C[C@H](CCCC(C)(C)O)[C@H]1CC[C@H]2[C@@H]3CC=C4C[C@@H](O)CC[C@]4(C)[C@H]3CC[C@]12C,70%,inhibition [2]: 48.4%; inhibition [3]: 58.2%; IC50 [4]: 0.3 µM; inhibition [5]: 64%
CC(C)(O)CCCCc1ccc(/C=C/[C@]2(C)CC[C@@H](O)CC2)cc1,0%,–
